Earlier results, collected in patent publication US20110282046A1, “PROCESS FOR PREPARATION OF CIS-NUCLEOSIDE DERIVATIVE” (priority 2009, published 2011).
Where two headings read alike, the source gives them in different places.

Details: for volume of water in which 1 g dissolves: Merck Index Entry no. 8869

Compound: O=C(O)CCC(=O)O [Succinic acid]
- volume of water in which 1 g dissolves (boiling water): 1 mL
- volume of water in which 1 g dissolves (cold water): 13 mL

Compound: O=C(O)c1ccccc1O [salicylic acid]
- solubility in water (water, Merck Index Entry no. 8332): 0.20 g in 100 ml water
